{
  "source": "ChEMBL document CHEMBL5725713",
  "about": "“5-aminopyrazole-4-carboxamide inhibitors of CDPK1 from T. gondii and C. parvum” (2016)",
  "target": "T1, Calmodulin-domain protein kinase 1 (Toxoplasma gondii, UniProt Q9BJF5)",
  "T1 sequence (Q9BJF5 whole entry)": "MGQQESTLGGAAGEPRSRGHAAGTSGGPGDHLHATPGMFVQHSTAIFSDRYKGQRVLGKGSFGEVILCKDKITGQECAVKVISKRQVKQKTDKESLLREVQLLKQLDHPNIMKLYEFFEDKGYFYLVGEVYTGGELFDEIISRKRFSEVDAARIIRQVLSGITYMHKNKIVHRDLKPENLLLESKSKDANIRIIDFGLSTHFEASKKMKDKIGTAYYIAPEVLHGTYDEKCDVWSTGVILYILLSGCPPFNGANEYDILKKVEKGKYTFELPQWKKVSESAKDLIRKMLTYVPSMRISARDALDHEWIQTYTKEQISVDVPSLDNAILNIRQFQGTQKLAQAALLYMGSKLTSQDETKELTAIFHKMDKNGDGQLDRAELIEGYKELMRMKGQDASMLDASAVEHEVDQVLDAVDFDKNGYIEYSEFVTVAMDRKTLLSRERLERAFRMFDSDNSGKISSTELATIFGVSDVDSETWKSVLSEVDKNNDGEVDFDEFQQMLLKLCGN",
  "experiment": "Luminescent Kinase Assay: Inhibition of TgCDPK1 and CpCDPK1 was determined using a luminescent kinase assay which measures ATP depletion in the presence of the Syntide 2 peptide substrate (KinaseGlo). For description of the methods and assays, see WO 2011/094628, incorporated by reference herein.",
  "data": [
    {"smiles": "CC(C)(C)n1cc(C(N)=O)c(-c2ccc3c(N)n[nH]c3c2)n1", "values": [
      {"measurement": "IC50", "value": 40, "unit": "nM"}
    ]}
  ]
}
